From patent US20080096870A1, “Methods and Materials for Treating Mental Illness” (priority 2004, published 2008)

Tests used:
[1] = tested on: NMDA receptor; assay: NMDA receptor-mediated currents, patch-clamp recording in cultured cerebrocortical neurons; assay type: cell-based, rat; settings: for effect on NMDA receptor-mediated current: rat cerebrocortical neurons, TTX-containing, Mg2+-free extracellular solution, holding potential −60 mV, concentration-dependent
[2] = tested on: glutamate release; assay: Evoked paired EPSCs (2nd/1st amplitude ratio) in cerebrocortical cultured neuron; assay type: cell-based, rat; settings: 100 μM, Mg2+ 1 mM, Vh −60 mV
Protocol: (§1) Neuronal Cultures. Cerebral cortices were dissected from newborn rats and treated with 0.25% trypsin to dissociate the cells. Dissociated cells were resuspended in Dulbecco's Modified Eagle's Medium (DMEM) containing 10% plasma derived horse serum (PDHS) and were plated in poly-L-lysine-coated, 35 mm Nunc plastic tissue culture dishes (3.0×10^6 cells/dish/2ml media). Cultures were maintained in an atmosphere of 5% CO2/95% air.
(§2) Electrophysiological recordings: Voltage- and current-clamp recordings of membrane ionic currents and potentials were conducted by using Axopatch 200B and Axoclamp 1B amplifiers (Axon Instruments, Foster City, Calif.). The perforated nystatin- and gramicidin-based patch-clamp recording techniques were used to reduce nonspecific rundown of intracellular processes. Neurons were used for electrophysiological recordings between 12 and 27 days in vitro. […] Patch microelectrodes were pulled from 1.5 mm borosilicate glass tubing using a two-stage vertical pipette puller (Narishige, East Meadow, N.Y.). […] For rapid application of agonist-containing solutions to neurons, the SF-77B system (Warner Instrument Corp., Hamden, Conn.) was used.
FIG. 4. […] A: Effect of 3,5-DBr-L-Phe on the evoked EPSCs in rat cerebrocortical cultured neuron. Examples of average EPSCs (20 traces average) in control conditions (open circle), in 3,5-DBr-L-Phe (filled circle). Synaptic responses were evoked by applying two sub-threshold electric stimuli (0.4-1 ms, 50-90 V, 250 ms apart) to an extracellular electrode (a patch electrode filled with the extracellular solution) positioned in the vicinity of the presynaptic neuron. Sweeps were recorded at 10 s intervals. After 20 sweeps, 100 μM 3,5-DBr-L-Phe was added. Neuron was held in whole-cell mode at Vh=−60 mV in Mg^2+ (1 mM) containing extracellular solution. […] The amplitude of the 1st and 2nd EPSCs were measured against the baseline; each point represents an average of five subsequent sweeps. Data expressed as mean±S.E.M. for 7 cells. *, P<0.01 compared to control.

[3] = tested on: AMPA-kainate receptors; assay: AMPA-activated currents (IAMPA) in cerebrocortical cultured neurons; assay type: cell-based, rat; settings: for effect on activity of postsynaptic AMPA-kainate receptors (AMPA/kainate receptor function): rat cerebrocortical cultured neurons
Protocol: as §1, §2
The miniature EPSCs were recorded in TTX-containing (0.3-1 μM), Mg^2+-free (in case of NMDA receptor recording) extracellular solution at Vh=−60 mV. In order to isolate the NMDA component of GluR-mediated EPSCs, the non-NMDAR (AMPA/kainate) antagonist NBQX (10-20 μM) was added to extracellular solutions. To isolate the non-NMDAR-mediated EPSCs, the experiments were performed in the presence of NMDAR channel blocker, MK-801 (5-10 μM), or in the presence of the NMDAR antagonist, AP-5 (20 μM). Strychnine (1 μM) and picrotoxin (20 μM) were added to the extracellular solution to block glycine and GABA receptors, respectively. […] The basic extracellular solution contained (in mM): NaCl 140, KCl 4, CaCl2 2, MgCl2 1,4-(2-hydroxyethyl)-1-piperazineethanesulfonic acid (HEPES) 10, and glucose 11. The pH of the extracellular solution was adjusted to 7.4 using NaOH. The main solution for filling the patch electrodes contained (in mM): Cs gluconate 135, NaCl 5, KCl 10, MgCl2 1, CaCl2 1, EGTA 11, HEPES 10, Na2ATP 2, Na2GTP […]. The pH of the intracellular solution was adjusted to 7.4 using CsOH. […]
C and D: 3,5-DBr-L-Phe depresses AMPA-activated currents (IAMPA) in rat cerebrocortical cultured neurons. Examples of AMPA-activated currents recorded from the same rat cortical neuron before application of 3,5-DBr-L-Phe, during exposure to different concentrations of BrPhe (noted in figure) and after washout of 3,5-DBr-L-Phe (C). […] Data expressed as mean±S.E.M. for 3-5 cells. *, P<0.01 compared to control.

[4] = tested on: NMDA receptor; settings: see ref. 12 and 13; cited from earlier work
[5] = tested on: AMPA/kainate receptor; assay: AMPA/kainate receptor-mediated mEPSCs, patch-clamp recording in cerebrocortical cultured neurons; assay type: cell-based, rat; settings: TTX-containing solution, −60 mV, MK-801 10 μM; concentration-dependent
Protocol: as §1
Electrophysiological recordings: Voltage- and current-clamp recordings of membrane ionic currents and potentials were conducted by using Axopatch 200B and Axoclamp 1B amplifiers (Axon Instruments, Foster City, Calif.). […]
(§3) The miniature EPSCs were recorded in TTX-containing (0.3-1 μM), Mg^2+-free (in case of NMDA receptor recording) extracellular solution at Vh=−60 mV. […]
The digitized data was analyzed off-line using the Mini-Analysis Program (Synaptosoft, Leonia, N.J.) or the pCLAMP9 (Axon Instruments) (Axon Instruments, Union City, Calif.). […]
FIG. 3. […] A: Representative traces of AMPA-kainate mEPSCs recorded from a cortical neuron under the following conditions: control; in the presence of 3,5-DBr-L-Phe (100 μM); after washout of 3,5-DBr-L-Phe. AMPA/kainate receptor-mediated currents were recorded in TTX-containing (0.3 μM) extracellular solution at holding membrane potential of −60 mV. […] Data is expressed as mean±SEM of 6-7 cells. […]

[6] = tested on: GABA receptor; assay: GABA receptor-mediated mIPSCs in cerebrocortical cultured neurons; assay type: cell-based, rat; settings: 100 μM; TTX-containing solution, −60 mV
Protocol: as §1
Electrophysiological recordings: Voltage- and current-clamp recordings of membrane ionic currents and potentials were conducted by using Axopatch 200B and Axoclamp 1B amplifiers (Axon Instruments, Foster City, Calif.). The perforated nystatin- and gramicidin-based patch-clamp recording techniques were used to reduce nonspecific rundown of intracellular processes. Neurons were used for electrophysiological recordings between 12 and 27 days in vitro. […]
as §3
FIG. 5. […] A: Representative GABA receptor-mediated mIPSCs recorded from the same neuron before (control), during (100 μM), and after (wash) application of 3,5-DBr-L-Phe. GABA receptor-mediated mIPSCs were recorded in TTX-containing (0.3 μM) extracellular solution at holding membrane potential of −60 mV. […] Summary data is expressed as mean±SEM of 5 cells.

[7] = tested on: rat cerebrocortical cultured neurons; assay: Elicited action potentials, current-clamp in cerebrocortical cultured neurons; assay type: cell-based; settings: 100 μM; inward current pulses 2 ms, 2 nA; 5 of 5 neurons
Protocol: as §1
Electrophysiological recordings: Voltage- and current-clamp recordings of membrane ionic currents and potentials were conducted by using Axopatch 200B and Axoclamp 1B amplifiers (Axon Instruments, Foster City, Calif.). The perforated nystatin- and gramicidin-based patch-clamp recording techniques were used to reduce nonspecific rundown of intracellular processes. Neurons were used for electrophysiological recordings between 12 and 27 days in vitro. […] Patch microelectrodes were pulled from 1.5 mm borosilicate glass tubing using a two-stage vertical pipette puller (Narishige, East Meadow, N.Y.). […]
C: Examples of action potentials elicited by depolarizing the membrane with inward current pulses of 2 ms duration and 2 nA amplitude in control (before application of 3,5-DBr-L-Phe), in the presence of 3,5-DBr-L-Phe (100 μM) and after wash-out of the drug. Similar responses were recorded from 5 of 5 neurons.

N[C@@H](Cc1cccc(Br)c1)C(=O)O [3-bromo-L-Phe, 3-bromo-L-phenylalanine]
effect on NMDA receptor-mediated current [1]: augment | effect on glutamate release [2]: significantly depresses | effect on activity of postsynaptic AMPA-kainate receptors (AMPA/kainate receptor function) [3]: significantly depresses

NC(CCCP(=O)(O)O)C(=O)O (stereo not drawn) [AP-5, reference compound]
effect of antagonist on 3,5-DBr-L-Phe-activated current ([1]; AP-5 20 μM, 3,5-DBr-L-Phe 100 μM): depression of 3,5-DBr-L-Phe-activated current

N[C@@H](Cc1ccccc1)C(=O)O [L-Phe, L-Phenylalanine]
effect on NMDA receptor activity [4]: opposite, depressant, effect

N[C@@H](Cc1cc(Br)cc(Br)c1)C(=O)O [3,5-DBr-L-Phe, 3,5-dibromo-L-phenylalanine]
sensitivity of 3,5-DBr-L-Phe-activated current to NMDA receptor specific antagonists ([1]; 3,5-DBr-L-Phe 100 μM, AP-5 20 μM, 6 neurons): is blocked by NMDA receptor specific antagonists | dependence of activating effect on NMDA receptor-mediated current on NMDA concentration ([1]; 3,5-DBr-L-Phe 100 μM, NMDA 3-1000 μM, glycine 0.1 μM and 10 μM): depends on concentration of NMDA in extracellular solution | dependence of activating effect on NMDA receptor-mediated current on glycine concentration ([1]; 3,5-DBr-L-Phe 100 μM, different concentrations of glycine): does not depend on concentration of glycine | effect on NMDA receptor-mediated current [1]: activates | effect on NMDA receptor-mediated current ([1]; listed as 3,5-dibromo-L-Phe): augment | effect on AMPA/kainate receptor-mediated mEPSCs (frequency and amplitude) [5]: depresses | effect on glutamate release [2]: causes depression | effect on glutamate release ([2]; listed as 3,5-dibromo-L-Phe): significantly depresses | effect on AMPA-activated currents (IAMPA) ([3]; AMPA 3 μM, exposure started 45 s before AMPA, different concentrations): depresses | effect on activity of postsynaptic AMPA-kainate receptors (AMPA/kainate receptor function) [3]: causes depression | effect on activity of postsynaptic AMPA-kainate receptors (AMPA/kainate receptor function) ([3]; listed as 3,5-dibromo-L-Phe): significantly depresses | effect on GABA receptor-mediated mIPSCs (amplitude and frequency) [6]: does not significantly affect | effect on elicited action potentials [7]: does not significantly affect
